Experimental data: ChEMBL document CHEMBL1139277, “Synthesis of tyrosinase inhibitory (4-oxo-4H-pyran-2-yl)acrylic acid ester derivatives” (Bioorg Med Chem Lett, 2009)

Key:
Tyrosinase = target: T1, Tyrosinase (Agaricus bisporus, UniProt O42713); assay: Inhibition of mushroom tyrosinase
T1 sequence (O42713 whole entry): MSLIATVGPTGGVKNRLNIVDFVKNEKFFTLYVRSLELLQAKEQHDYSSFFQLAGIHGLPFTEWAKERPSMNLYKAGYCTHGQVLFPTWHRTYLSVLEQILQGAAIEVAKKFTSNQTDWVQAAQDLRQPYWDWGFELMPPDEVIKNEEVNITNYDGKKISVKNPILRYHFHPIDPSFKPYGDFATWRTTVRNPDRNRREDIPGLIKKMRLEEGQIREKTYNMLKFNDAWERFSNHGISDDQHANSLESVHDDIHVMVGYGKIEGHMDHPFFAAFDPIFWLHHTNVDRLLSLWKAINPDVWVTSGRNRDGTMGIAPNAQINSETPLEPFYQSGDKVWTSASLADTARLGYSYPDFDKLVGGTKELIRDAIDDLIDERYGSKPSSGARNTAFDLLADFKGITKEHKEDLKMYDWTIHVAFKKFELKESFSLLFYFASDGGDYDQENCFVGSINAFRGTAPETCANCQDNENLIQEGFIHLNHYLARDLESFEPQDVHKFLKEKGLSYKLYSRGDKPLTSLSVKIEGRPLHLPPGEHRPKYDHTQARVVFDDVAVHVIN

B16-F10 [1] = assay: Inhibition of melanin production in mouse B16F10 cells at 20 ug/ml after 72 hrs relative to control; format: functional; settings: B16-F10, 72 h
B16-F10 [2] = assay: Cytotoxicity against mouse B16F10 cells at 40 ug/ml after 72 hrs by MTT assay; format: functional
B16-F10 [3] = assay: Cytotoxicity against mouse B16F10 cells at 20 ug/ml after 72 hrs by MTT assay; format: functional
B16-F10 [4] = assay: Inhibition of melanin production in mouse B16F10 cells at 40 ug/ml after 72 hrs relative to control; format: functional; settings: B16-F10, 72 h

Row | SMILES | IC50 (Tyrosinase) [µM] | inhibition at 20 µg/mL (B16-F10 [1]) [%] | Activity (B16-F10 [2]) [%] | Activity (B16-F10 [3]) [%] | inhibition at 40 µg/mL (B16-F10 [4]) [%]
1 | CCCCCCCCOC(=O)/C=C/c1cc(=O)c(O)co1 | > 400 | 25 | 62.5 | 85 | 54.6
2 | COCCOC(=O)/C=C/c1cc(=O)c(O)co1 | 98.1 | 29.6 | 65.4 | 81.1 | 47.8
3 | COCCOCCOCCOC(=O)/C=C/c1cc(=O)c(O)co1 | 67.6 | 11 | 79.7 | 83.9 | 25.4
4 | COCCOCCOC(=O)/C=C/c1cc(=O)c(O)co1 | 59.1 | 19.5 | 83.4 | 88.7 | 24
5 | CC(C)OC(=O)/C=C/c1cc(=O)c(O)co1 | 80.3 | 19.5 | 37.4 | 50.9 | 69.8
6 | O=C(/C=C/c1cc(=O)c(O)co1)OCCO | 74.9 | 30 | 74.8 | 80.5 | 41.6
7 | CCOC(=O)/C=C/c1cc(=O)c(O)co1 | 36.3 | 46.1 | 39.2 | 72 | 65
8 | O=C(/C=C/c1cc(=O)c(O)co1)OCCOCCO | 26.5 | 20.1 | 89.4 | 84.6 | 32.4
9 | O=C(/C=C/c1cc(=O)c(O)co1)OCCOCCOCCO | 79.2 | 8.7 | 78.5 | 84.9 | 17.9
